ChEMBL document CHEMBL1201862, “PubChem BioAssay data set” (2004)
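Where inhibition never reached the appropriate level, the endpoint shown equals the highest concentration tested. Otherwise, values were interpolated linearly from a five-concentration, 48-hour dose response in 96-well plates. GI50: concentration for 50% inhibition of growth.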 The source made the active and inactive calls. Cut-off read from the data, not from the text of the source: active = GI50 up to about 1.1 µM and inactive = higher.

What was measured:
Assay in all cases: NCI tumour cell line growth inhibition, 48 h
SK-MEL-2 = tested on: SK-MEL-2
OVCAR-5 = tested on: OVCAR-5
UO-31 = tested on: UO-31
SR = tested on: SR
CCRF-CEM = tested on: CCRF-CEM
MOLT-4 = tested on: MOLT-4
K562 = tested on: K562
EKVX = tested on: EKVX
KM12 = tested on: KM12
SW-620 = tested on: SW-620
Malme-3M = tested on: Malme-3M
SK-MEL-5 = tested on: SK-MEL-5
A549 = tested on: A549
M19-MEL = tested on: M19-MEL
HL-60 = tested on: HL-60
COLO 205 = tested on: COLO 205
SK-OV-3 = tested on: SK-OV-3

Measured: GI50

CSCSCC(CO)NC(=O)/C=C/c1c(C)nc(O)nc1O (configuration not stated)
inactive: SK-MEL-2 89.9 µM | OVCAR-5 > 100 µM | UO-31 > 100 µM | SR 56.4 µM | CCRF-CEM 44.4 µM | MOLT-4 96.6 µM | K562 39.7 µM | EKVX 57.1 µM | KM12 > 100 µM | SW-620 > 100 µM | Malme-3M > 100 µM | SK-MEL-5 > 100 µM | A549 > 100 µM | M19-MEL 84.3 µM | HL-60 > 100 µM

Cc1ccc(C)c(N2C(=O)C(=O)C(c3nc4ccccc4o3)/C(=N/N)C2=O)c1 (configuration not stated)
inactive: SK-MEL-2 > 100 µM | UO-31 > 100 µM | SR > 100 µM | COLO 205 > 100 µM | CCRF-CEM > 100 µM | MOLT-4 > 100 µM | EKVX > 100 µM | KM12 > 100 µM | SW-620 > 100 µM | Malme-3M > 100 µM | SK-MEL-5 > 100 µM | A549 > 100 µM | M19-MEL > 100 µM | SK-OV-3 > 100 µM | HL-60 > 100 µM

C/C=C(/I)CBr
inactive: SK-MEL-2 14.4 µM | OVCAR-5 > 10 µM | UO-31 18.9 µM | COLO 205 13.2 µM | CCRF-CEM 3.78 µM | MOLT-4 15.9 µM | K562 5.15 µM | EKVX 21.7 µM | SW-620 13.6 µM | Malme-3M 16 µM | SK-MEL-5 15.5 µM | A549 24.3 µM | M19-MEL 14.5 µM | SK-OV-3 30.8 µM | HL-60 4.49 µM

COC(=O)C(CCCC1(c2ccccc2)OCCO1)C(C)=O (configuration not stated)
inactive: SK-MEL-2 > 100 µM | OVCAR-5 > 100 µM | UO-31 > 100 µM | SR 85.1 µM | COLO 205 > 100 µM | CCRF-CEM > 100 µM | MOLT-4 > 100 µM | K562 91.8 µM | EKVX > 100 µM | KM12 > 100 µM | SW-620 > 100 µM | Malme-3M > 100 µM | SK-MEL-5 66.4 µM | A549 > 100 µM | M19-MEL > 100 µM | SK-OV-3 > 100 µM | HL-60 > 100 µM

O=C(c1ccc(Cl)cc1)c1ccc(OCC(=O)N2CCN(c3ccccc3)CC2)cc1
inactive: SK-MEL-2 > 100 µM | OVCAR-5 > 100 µM | UO-31 > 100 µM | SR 84.5 µM | COLO 205 > 100 µM | CCRF-CEM > 100 µM | MOLT-4 62.7 µM | K562 > 100 µM | EKVX > 100 µM | KM12 > 100 µM | SW-620 > 100 µM | Malme-3M > 100 µM | SK-MEL-5 41.6 µM | A549 > 100 µM | M19-MEL > 100 µM | SK-OV-3 > 100 µM | HL-60 > 100 µM

O=C1C=C(c2c(O)ccc3ccccc23)c2cc(O)ccc2C1=O
inactive: SK-MEL-2 20.1 µM | OVCAR-5 21.1 µM | UO-31 19.6 µM | SR 6.59 µM | COLO 205 19.5 µM | MOLT-4 3.09 µM | K562 > 100 µM | EKVX 21.2 µM | KM12 16.1 µM | SW-620 18.2 µM | Malme-3M 19.2 µM | SK-MEL-5 15.1 µM | A549 18.2 µM | M19-MEL 3.33 µM | SK-OV-3 23.5 µM | HL-60 2.02 µM

CC(C(=O)n1c2ccccc2c2ccccc21)N(c1ccccc1)c1ccccc1 (configuration not stated)
inactive: SK-MEL-2 15.1 µM | OVCAR-5 18.4 µM | UO-31 20.6 µM | SR 8.93 µM | COLO 205 17.4 µM | CCRF-CEM 1.64 µM | MOLT-4 11 µM | K562 16.9 µM | EKVX 19.4 µM | SW-620 19.8 µM | Malme-3M 15.1 µM | SK-MEL-5 20.1 µM | A549 20.4 µM | M19-MEL 18.5 µM | SK-OV-3 18.7 µM | HL-60 4.46 µM

COc1ccc(/C=C/C(=O)c2c(-c3ccccc3)nn(C)c(=O)c2N2CC2C)cc1 (configuration not stated)
inactive: SK-MEL-2 21.8 µM | OVCAR-5 37.6 µM | UO-31 70.3 µM | COLO 205 34.3 µM | CCRF-CEM 22.9 µM | MOLT-4 25.5 µM | K562 26.2 µM | EKVX 19.6 µM | KM12 30.3 µM | SW-620 26.4 µM | Malme-3M 35.7 µM | SK-MEL-5 29.4 µM | A549 43.2 µM | M19-MEL 49.9 µM | SK-OV-3 30.2 µM | HL-60 17.5 µM

CC1=C(C(=O)Nc2ccccc2)C(c2ccc([N+](=O)[O-])cc2)C(C(=O)Nc2ccccc2)=C(C)N1
inactive: SK-MEL-2 14.7 µM | OVCAR-5 40.9 µM | UO-31 22.4 µM | SR 18.4 µM | CCRF-CEM 10.3 µM | MOLT-4 7.05 µM | K562 15.4 µM | EKVX 21.5 µM | KM12 15.8 µM | SW-620 15.2 µM | Malme-3M 34.2 µM | SK-MEL-5 24.1 µM | A549 34 µM | M19-MEL 16.6 µM | HL-60 13.1 µM

O=C1OC(CC(=O)c2ccccc2Cl)C(Cl)=C1Cl (configuration not stated)
inactive: SK-MEL-2 > 100 µM | OVCAR-5 > 100 µM | UO-31 > 100 µM | SR > 100 µM | COLO 205 > 100 µM | CCRF-CEM 48.3 µM | MOLT-4 > 100 µM | K562 > 100 µM | EKVX > 100 µM | KM12 > 100 µM | SW-620 > 100 µM | Malme-3M > 100 µM | SK-MEL-5 > 100 µM | A549 > 100 µM | M19-MEL > 100 µM | SK-OV-3 > 100 µM | HL-60 > 100 µM

CS/C(=N\C(=S)Nc1ccccc1)Nc1ccccc1
inactive: SK-MEL-2 15.5 µM | OVCAR-5 23.6 µM | UO-31 11.6 µM | SR 15.4 µM | COLO 205 23.8 µM | MOLT-4 12.9 µM | K562 12.6 µM | EKVX > 10 µM | KM12 25.6 µM | SW-620 23.1 µM | Malme-3M 15.2 µM | SK-MEL-5 6.01 µM | A549 16.5 µM | M19-MEL 11 µM | SK-OV-3 27 µM | HL-60 10.6 µM

COC1OC(C)C(OC(=O)C(C)(C)C)C(C)(O)C1O (configuration not stated)
inactive: OVCAR-5 > 100 µM | SR > 100 µM | COLO 205 > 100 µM | CCRF-CEM > 100 µM | MOLT-4 > 100 µM | K562 > 100 µM | KM12 > 100 µM | SW-620 > 100 µM | Malme-3M > 100 µM | SK-MEL-5 > 100 µM | A549 > 100 µM | M19-MEL > 100 µM | HL-60 > 100 µM

CCN(CC)CC(C(=O)Nc1c(C)cccc1C)/C(C)=N/NC(N)=S (configuration not stated)
inactive: SK-MEL-2 > 100 µM | OVCAR-5 > 100 µM | UO-31 > 100 µM | COLO 205 > 100 µM | CCRF-CEM > 100 µM | MOLT-4 > 100 µM | K562 > 100 µM | EKVX > 100 µM | KM12 > 100 µM | SW-620 > 100 µM | Malme-3M > 100 µM | SK-MEL-5 > 100 µM | A549 > 100 µM | M19-MEL > 100 µM | SK-OV-3 > 100 µM | HL-60 > 100 µM

CCCCCCCC(=O)NCC(O)CNC(=O)CCCCCCC
inactive: OVCAR-5 > 100 µM | UO-31 > 100 µM | SR > 100 µM | COLO 205 > 100 µM | CCRF-CEM 88.1 µM | MOLT-4 > 100 µM | K562 > 100 µM | EKVX > 100 µM | KM12 > 100 µM | SW-620 > 100 µM | Malme-3M > 100 µM | SK-MEL-5 > 100 µM | A549 > 100 µM | M19-MEL > 100 µM | SK-OV-3 > 100 µM | HL-60 > 100 µM

C=CCOC(C)n1c(C)cc(=O)n(C(C)OCC=C)c1=O (configuration not stated)
inactive: UO-31 > 100 µM | SR > 100 µM | COLO 205 > 100 µM | CCRF-CEM > 100 µM | MOLT-4 > 100 µM | K562 > 100 µM | EKVX > 100 µM | SW-620 > 100 µM | Malme-3M > 100 µM | SK-MEL-5 > 100 µM | A549 > 100 µM | M19-MEL > 100 µM | SK-OV-3 > 100 µM | HL-60 > 100 µM

COc1ccc(NS(=O)(=O)c2ccc(/N=C3\C=C(Nc4ccc(S(=O)(=O)Nc5ccc(OC)nn5)cc4)C(=O)c4ccccc43)cc2)nn1
inactive: SK-MEL-2 16.9 µM | OVCAR-5 19.1 µM | UO-31 19.7 µM | SR 83.6 µM | COLO 205 17.7 µM | CCRF-CEM > 100 µM | MOLT-4 87.9 µM | K562 61.1 µM | EKVX 24.8 µM | KM12 16.7 µM | SW-620 18.9 µM | Malme-3M 19 µM | SK-MEL-5 20.4 µM | A549 17.9 µM | M19-MEL 16.9 µM | SK-OV-3 18.1 µM | HL-60 > 100 µM

CN1N=C2c3ccccc3OC(c3ccccc3)[C@H]2C1c1ccccc1 (some centres not stated)
inactive: SK-MEL-2 > 100 µM | OVCAR-5 > 100 µM | UO-31 61.1 µM | SR > 100 µM | COLO 205 > 100 µM | CCRF-CEM 38.4 µM | MOLT-4 35.2 µM | K562 88.1 µM | EKVX > 100 µM | KM12 > 100 µM | SW-620 > 100 µM | Malme-3M 22.2 µM | A549 72.9 µM | M19-MEL > 100 µM | SK-OV-3 > 100 µM | HL-60 37.3 µM
